For this assay, the target named is T1, human sodium-dependent glucose transporter 2 (SGLT2, SLC5A2) (Homo sapiens, UniProt P31639).
T1 construct: Bases 21 to 2039 correspond to the complete coding region of human SGLT2; expressed in transfected cells; host or cells: CHO-TREx cells (Invitrogen), pcDNA4/TO vector, tetracycline-induced
T1 sequence (P31639 1-672): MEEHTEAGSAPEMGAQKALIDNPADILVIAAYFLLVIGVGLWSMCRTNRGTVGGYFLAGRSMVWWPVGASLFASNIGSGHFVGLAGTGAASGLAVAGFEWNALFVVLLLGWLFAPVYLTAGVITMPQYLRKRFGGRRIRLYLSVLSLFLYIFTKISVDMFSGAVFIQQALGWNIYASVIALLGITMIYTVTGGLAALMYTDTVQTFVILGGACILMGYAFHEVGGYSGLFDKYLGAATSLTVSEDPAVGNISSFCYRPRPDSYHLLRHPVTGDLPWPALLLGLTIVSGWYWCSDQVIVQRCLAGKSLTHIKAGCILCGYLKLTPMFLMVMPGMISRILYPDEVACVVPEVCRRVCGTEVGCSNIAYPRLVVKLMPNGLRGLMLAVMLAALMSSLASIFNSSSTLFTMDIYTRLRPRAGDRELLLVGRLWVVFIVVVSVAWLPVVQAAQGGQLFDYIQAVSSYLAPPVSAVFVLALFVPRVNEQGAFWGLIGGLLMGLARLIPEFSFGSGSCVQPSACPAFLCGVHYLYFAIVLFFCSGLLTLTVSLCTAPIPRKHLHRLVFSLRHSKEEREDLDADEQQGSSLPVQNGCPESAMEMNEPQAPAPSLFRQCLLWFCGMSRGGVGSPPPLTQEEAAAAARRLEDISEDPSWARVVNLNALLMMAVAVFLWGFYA
As to the kind of experiment: Inhibition of methyl-D-glucopyranoside uptake in CHO-TRex-hSGLT2 cells. To be noted: recombinant SGLT2; read-out: IC50 SGLT 2. Format: cell-based. From the text: Inhibition of the Transport Activity of the Human Sodium-Dependent Glucose Transporter 2 (SGLT2, SLC5A2) In Vitro
1. Cloning of an Expression Vector for Human SGLT2
The cDNA for human SGLT2 was introduced into the pcDNA4/TO vector (Invitrogen) by means of standard methods of molecular biology as described in Sambrook et al. (Molecular Cloning, A Laboratory Manual, Second Edition). […] Bases 21 to 2039 correspond to the complete coding region of human SGLT2.
2. Production of a Recombinant Cell Line with Inducible Expression of Human SGLT2
The expression vector for human SGLT2 was introduced into CHO-TREx cells (Invitrogen) by means of FuGene6 lipofection (Roche). To select single cell clones, 600 μg/ml of Zeocin (Invitrogen) was added to the cell culture medium (nutrient mixture F-12 (Ham), (Invitrogen) supplemented with 10% fetal calf serum (FBS Gold, PAA), 10 μg/ml Blasticidin S(CN Biosciences), 100 units/ml penicillin, 100 units/ml streptomycin). The functionality of the single cell clones resulting from the selection was tested via their uptake activity for radiolabeled methyl- -D-glucopyranoside. That cell clone with the highest uptake activity for methyl- -D-glucopyranoside, referred to hereinafter as CHO-TRex-hSGLT2, was selected for the further experiments and cultured further in the presence of 600 μg/ml Zeocin.
3. Measurement of the Inhibiting Action of Test Substances on the Uptake of Methyl- -D-glucopyranoside (-MDG)
CHO-TRex-hSGLT2 cells were seeded in cell culture medium in a concentration of 50 000 cells per well in Cytostar-T scintillating 96-well plates (Amersham Biosciences) and cultivated for 24 h. The expression of the recombinant human SGLT2 was induced by adding 1 μg/ml tetrazykline for a further 24 h. For -MDG uptake experiments, the cells were washed with PBS and then starved at 37° C. in starvation medium (PBS supplemented with 10% fetal calf serum) for 1 hour. […] After an incubation time of 120 min at 37° C., the reaction was stopped by adding 50 μl/well of 10 mM methyl- -D-glucopyranoside in transport assay buffer (4° C.), and the radioactivity taken up into the cells was determined in a MicroBeta Scintillation Microplate Reader (Wallac). The half-maximum inhibiting action of the test substances (IC50 value) was determined as follows:
4. […] This is the measurement in the absence of substance, measured in sodium-containing transport assay buffer.
5. […] This is the measurement in the absence of substance, measured in sodium-free transport assay buffer (140 mM choline chloride, 2 mM potassium chloride, 1 mM magnesium chloride, 1 mM calcium chloride, 10 mM HEPES/Tris, pH7.5). […]

SMILES strings stand for the structures.

The text below walks through data of patent US20120270819A1, “USE OF COMPOUNDS WITH SGLT-1/SGLT-2 INHIBITOR ACTIVITY FOR PRODUCING MEDICAMENTS FOR TREATMENT OF BONE DISEASE” (SANOFI, priority 2009, published 2012).

For the compound `COc1ccc(Cc2ccccc2OC2OC(CO)C(F)C(O)C2O)cc1` (stereo not shown) [Example 1 of formula III], the IC50 worked out at 0.034 µM. The result for `COc1ccc(Cc2c(OC3OC(CO)C(F)C(O)C3O)n[nH]c2C(F)(F)F)cc1` (stereo not shown) [Example 5 of formula II] reads 0.088 µM; that for `CCc1ccc(Cc2ccccc2OC2OC(CO)C(F)C(O)C2O)cc1` (stereo not shown) [Example 20 of formula III], 0.029 µM. For the compound `CC(C)c1[nH]nc(OC2OC(CO)C(F)C(O)C2O)c1Cc1ccc(CCCC(=O)NC(CO)(CO)CO)cc1` (stereo not shown) [Example 21 of formula I], the IC50 worked out at 0.318 µM.

A word on the IC50: it is the concentration that gives 50% inhibition.
